Earlier results, collected in patent US11712576B2, “Method and apparatus for cancer treatment” (Minnesota Medical Physics LLC, priority 2018, dated 2023).

Assays:
[1] = test system: cancer cells
[2] = oral doses of 4 mg twice a day over a week period
[3] = test system: tumor; details: concentration of 100 μM
[4] = test system: melanoma, colon, prostate carcinoma, lymphoma, pancreatic and hepatocellular carcinomas
[5] = test system: human glioblastoma U87MG cancer cells; details: agonist 100 nM combined with EFS (Helmholtz coils)
[6] = test system: BBB
[7] = molecular target: adenosine receptor A2aAR (Homo sapiens, UniProt P29274)
[8] = test system: lung cancer cells Lu-65; details: highest concentrations in mM range (0.01-10 mM tested), 48 hours

Sequence of adenosine receptor A2aAR (P29274 whole entry): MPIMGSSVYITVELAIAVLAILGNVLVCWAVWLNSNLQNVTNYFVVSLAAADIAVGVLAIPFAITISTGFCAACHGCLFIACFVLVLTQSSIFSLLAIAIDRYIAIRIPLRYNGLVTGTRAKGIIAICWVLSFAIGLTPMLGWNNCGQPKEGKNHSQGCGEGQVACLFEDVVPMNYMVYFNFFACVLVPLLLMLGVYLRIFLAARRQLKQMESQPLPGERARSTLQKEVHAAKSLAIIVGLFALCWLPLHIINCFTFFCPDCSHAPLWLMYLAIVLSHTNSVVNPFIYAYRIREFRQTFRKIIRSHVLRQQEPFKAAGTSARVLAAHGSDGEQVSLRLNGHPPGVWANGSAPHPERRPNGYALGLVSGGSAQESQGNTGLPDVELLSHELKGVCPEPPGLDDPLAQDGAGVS

CNC(=O)[C@H]1O[C@@H](n2cnc3c(NCc4cccc(I)c4)ncnc32)[C@H](O)[C@@H]1O [CF101]
apoptosis of cancer cells (normal cells refractory) [1]: induce apoptosis of cancer cells
tolerability [2]: well tolerated

CNC(=O)[C@H]1O[C@@H](n2cnc3c(NCc4cccc(I)c4)nc(Cl)nc32)[C@H](O)[C@@H]1O [CI-IB-MECA]
effect on tumor growth [3]: only a slowdown of tumor growth
apoptosis of cancer cells (normal cells refractory) [1]: induce apoptosis of cancer cells
effect on metastases, migrating mobility and proliferation of cancer cells [4]: reduction of metastases, migrating mobility of cancer cells and inhibition of proliferation
increase in apoptosis attributed to EFS over agonist alone [5]: 25-30%

CNC(=O)[C@H]1O[C@@H](n2cnc3c(NCc4cccc(I)c4)ncnc32)[C@H](O)[C@@H]1O [IB-MECA]
effect on metastases, migrating mobility and proliferation of cancer cells [4]: reduction of metastases, migrating mobility of cancer cells and inhibition of proliferation

CNC(=O)c1cnn(-c2nc(N)c3ncn([C@@H]4O[C@H](CO)[C@@H](O)[C@H]4O)c3n2)c1 [Lexiscan]
side effects ([6]; doses used for cardiac perfusion): strong, sometimes life-threatening side effects
permeation of the BBB ([6]; in vivo): substantial permeation of the BBB

Nc1nc2c(cnn2CCc2ccccc2)c2nc(-c3ccco3)nn12 [SCH-58261]
selectivity for A2aAR over the other adenosine receptors [7]: more than 50 fold

Nc1ncnc2c1ncn2[C@@H]1O[C@H](CO)[C@@H](O)[C@H]1O [adenosine]
cancer cells destroyed [8]: 100%
